Assay results taken from US10882843B2, “5-aminopyrazole carboxamide derivative as BTK inhibitor and preparation method and pharmaceutical composition thereof” (SUZHOU SINOVENT PHARMACEUTICALS CO., LTD., priority 2016, dated 2021).

Legend:
[1] = biological target: Recombinant Btk (Homo sapiens, UniProt Q06187); test: Kinase activity (BTK) inhibition assay, TR-FRET; assay type: biochemical; conditions: read-out: BTK kinase inhibitory activity grade (A/B/C)
Method: Kinase Activity (BTK) Inhibition Assay
The inhibitory effects of the compounds disclosed herein on BTK kinase activity were tested in an assay based on a time resolved fluorescence resonance energy transfer (TR-FRET) method. Recombinant Btk was pre-incubated with the compound disclosed herein in an assay buffer containing 50 mM. Tris pH 7.4, 10 mM MgCl2, 2 mM MnCl2, 0.1 mM EDTA, 1 mM DTT, 20 nM SEB, 0.1% BSA, 0.005% tween-20 at room temperature for 1 hour. The reaction was initiated by the addition of ATP (at the ATP Km concentration) and the peptide substrate (Biotin-[…]-NH2). After incubation for 1 hour at room temperature, an equal volume of stop solution containing 50 mM HEPES pH 7.0, 800 mM KF, 20 mM EDTA, 0.1% BSA, p-Tyr66 antibody linked with Eu cryptate and streptavidin-labeled XL665 was added to stop the reaction. The plate was incubated for an additional hour at room temperature and then the TR-FRET signal was read on a BMG PHERAstar FS instrument (ex337 nm, em 620 nm/665 nm). Based on the ratio of the signal of fluorescence at […] to 665 nm, the enzyme activity was calculated with an increased compound concentration. IC50 of each compound was obtained by fitting the data to the four-parameter equation of Graphpad Prism software.

[2] = tested on: diffuse large B-cell lymphoma cell line TMD-8; test: Pharmacodynamic assay, TMD-8 xenograft in NOD.SCID mice; assay type: in vivo; conditions: p.o. daily for 21 days
Method: Severe immunodeficiency NOD.SCID mice were purchased from Beijing Vital River Laboratory Animal Technology Co., Ltd., and were housed in SPF grade animal room. After TMD-8 cells were cultured to the sufficient amount, the cells were collected by centrifugation and washed twice with PBS. Finally, the cells were resuspended in serum-free RPMI 1640 medium plus Matrigel (1:1 v/v). 0.2 ml of cell suspension was injected subcutaneously on the right flank of each mouse using 1 ml syringe and 25 G syringe needle. The tumor size was measured with a caliper after about one week post injection. The tumor volume was calculated according to the following formula: tumor volume=(length×width^2)/2. When the tumor volume reached about 100-200 mm^3, the mice were grouped and p.o. administered daily for 21 days.

[3] = biological target: LYN (Homo sapiens, UniProt P07948); test: In vitro kinase selectivity assay, LYN (Z'-Lyte); assay type: biochemical; conditions: read-out: LYN kinase inhibitory activity grade
LYN, sequence (P07948 whole entry, species assumed): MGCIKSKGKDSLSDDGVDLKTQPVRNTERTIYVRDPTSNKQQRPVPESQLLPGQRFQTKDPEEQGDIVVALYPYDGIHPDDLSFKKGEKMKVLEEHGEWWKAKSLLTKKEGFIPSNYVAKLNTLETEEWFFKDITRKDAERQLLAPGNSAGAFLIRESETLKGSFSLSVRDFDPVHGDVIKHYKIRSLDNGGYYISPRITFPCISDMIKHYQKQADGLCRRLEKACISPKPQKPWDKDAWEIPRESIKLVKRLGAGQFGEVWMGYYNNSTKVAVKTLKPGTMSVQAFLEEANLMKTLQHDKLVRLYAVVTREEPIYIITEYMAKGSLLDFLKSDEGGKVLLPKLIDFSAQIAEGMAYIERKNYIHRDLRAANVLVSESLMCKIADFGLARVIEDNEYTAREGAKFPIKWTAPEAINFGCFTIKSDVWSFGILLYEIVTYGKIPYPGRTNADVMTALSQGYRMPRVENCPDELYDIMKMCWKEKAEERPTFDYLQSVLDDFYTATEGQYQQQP
Method: (§1) The assay platform for EGFR and ITK kinase activities was established using time-resolved fluorescence resonance energy transfer-based method; the assay platform for LCK, SRC and LYN kinase activities was established using Z′-Lyte method; and the assay platform for TEC and JAK3 kinase activities was established using Lance Ultra method. The inhibitory effects of the compounds disclosed herein on different kinase activities were tested separately for each compound at 11 concentrations. The IC50 value of each compound was calculated using Graphpad Prism software.

[4] = biological target: SRC (Homo sapiens, UniProt P12931); test: In vitro kinase selectivity assay, SRC (Z'-Lyte); assay type: biochemical; conditions: read-out: SRC kinase inhibitory activity grade
SRC, sequence (P12931 whole entry, species assumed): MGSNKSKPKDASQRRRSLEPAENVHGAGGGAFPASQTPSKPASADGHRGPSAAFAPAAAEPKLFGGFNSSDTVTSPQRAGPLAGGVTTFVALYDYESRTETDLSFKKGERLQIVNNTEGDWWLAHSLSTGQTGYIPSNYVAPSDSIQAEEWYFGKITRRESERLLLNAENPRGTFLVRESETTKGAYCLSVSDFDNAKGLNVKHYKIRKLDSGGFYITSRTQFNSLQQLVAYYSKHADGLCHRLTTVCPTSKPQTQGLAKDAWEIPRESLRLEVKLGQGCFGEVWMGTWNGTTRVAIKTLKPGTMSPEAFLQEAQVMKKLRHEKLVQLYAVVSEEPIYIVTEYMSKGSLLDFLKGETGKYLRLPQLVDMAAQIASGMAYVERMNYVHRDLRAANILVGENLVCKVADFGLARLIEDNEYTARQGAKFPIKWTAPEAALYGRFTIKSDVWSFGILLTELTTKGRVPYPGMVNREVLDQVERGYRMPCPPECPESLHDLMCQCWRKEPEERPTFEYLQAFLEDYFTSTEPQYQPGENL
Method: as §1

[5] = biological target: T1, TEC (Homo sapiens, UniProt P42680); test: In vitro kinase selectivity assay, TEC (Lance Ultra); assay type: biochemical; conditions: read-out: TEC kinase inhibitory activity grade
T1 sequence (P42680 1-631): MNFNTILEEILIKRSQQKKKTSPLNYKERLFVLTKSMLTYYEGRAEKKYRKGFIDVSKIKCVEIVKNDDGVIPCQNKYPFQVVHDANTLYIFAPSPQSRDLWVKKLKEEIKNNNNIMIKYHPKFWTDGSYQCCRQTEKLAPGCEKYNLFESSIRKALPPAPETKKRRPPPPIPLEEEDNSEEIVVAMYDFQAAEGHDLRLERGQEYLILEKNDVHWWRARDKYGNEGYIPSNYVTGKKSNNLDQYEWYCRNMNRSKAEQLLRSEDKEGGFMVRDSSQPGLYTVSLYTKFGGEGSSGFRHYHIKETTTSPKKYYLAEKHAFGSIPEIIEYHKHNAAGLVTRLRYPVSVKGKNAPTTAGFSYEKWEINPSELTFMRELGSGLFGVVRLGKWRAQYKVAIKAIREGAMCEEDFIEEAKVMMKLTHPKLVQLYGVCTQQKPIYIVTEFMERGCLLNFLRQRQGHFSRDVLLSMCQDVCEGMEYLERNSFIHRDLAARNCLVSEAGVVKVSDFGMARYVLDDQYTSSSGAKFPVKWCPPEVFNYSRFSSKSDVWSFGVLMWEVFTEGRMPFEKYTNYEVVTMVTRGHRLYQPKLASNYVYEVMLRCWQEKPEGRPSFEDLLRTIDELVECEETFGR
Method: as §1

[6] = biological target: T2, ITK (Homo sapiens, UniProt Q08881); test: In vitro kinase selectivity assay, ITK (TR-FRET); assay type: biochemical; conditions: read-out: ITK kinase inhibitory activity grade
T2 sequence (Q08881 1-620): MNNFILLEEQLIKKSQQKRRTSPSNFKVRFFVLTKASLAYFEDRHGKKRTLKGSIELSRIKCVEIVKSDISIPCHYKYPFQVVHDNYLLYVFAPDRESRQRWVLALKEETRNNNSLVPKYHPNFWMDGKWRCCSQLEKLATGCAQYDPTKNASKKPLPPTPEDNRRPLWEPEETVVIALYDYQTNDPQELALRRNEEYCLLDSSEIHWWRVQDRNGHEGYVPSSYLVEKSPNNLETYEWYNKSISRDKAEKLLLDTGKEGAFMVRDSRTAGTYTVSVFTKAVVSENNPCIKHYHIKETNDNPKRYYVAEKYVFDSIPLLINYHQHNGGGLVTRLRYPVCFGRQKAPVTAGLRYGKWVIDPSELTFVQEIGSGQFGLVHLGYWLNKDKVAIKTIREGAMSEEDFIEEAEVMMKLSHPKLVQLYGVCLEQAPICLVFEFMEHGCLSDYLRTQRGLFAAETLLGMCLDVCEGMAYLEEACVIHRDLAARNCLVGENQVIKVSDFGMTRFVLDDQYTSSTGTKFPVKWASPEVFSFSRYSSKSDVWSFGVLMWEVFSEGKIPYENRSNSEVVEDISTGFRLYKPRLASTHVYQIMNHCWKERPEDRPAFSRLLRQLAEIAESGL
Method: as §1

[7] = biological target: EGFR (Homo sapiens, UniProt P00533); test: In vitro kinase selectivity assay, EGFR (TR-FRET); assay type: biochemical; conditions: read-out: EGFR kinase inhibitory activity grade
EGFR, sequence (P00533 25-1210): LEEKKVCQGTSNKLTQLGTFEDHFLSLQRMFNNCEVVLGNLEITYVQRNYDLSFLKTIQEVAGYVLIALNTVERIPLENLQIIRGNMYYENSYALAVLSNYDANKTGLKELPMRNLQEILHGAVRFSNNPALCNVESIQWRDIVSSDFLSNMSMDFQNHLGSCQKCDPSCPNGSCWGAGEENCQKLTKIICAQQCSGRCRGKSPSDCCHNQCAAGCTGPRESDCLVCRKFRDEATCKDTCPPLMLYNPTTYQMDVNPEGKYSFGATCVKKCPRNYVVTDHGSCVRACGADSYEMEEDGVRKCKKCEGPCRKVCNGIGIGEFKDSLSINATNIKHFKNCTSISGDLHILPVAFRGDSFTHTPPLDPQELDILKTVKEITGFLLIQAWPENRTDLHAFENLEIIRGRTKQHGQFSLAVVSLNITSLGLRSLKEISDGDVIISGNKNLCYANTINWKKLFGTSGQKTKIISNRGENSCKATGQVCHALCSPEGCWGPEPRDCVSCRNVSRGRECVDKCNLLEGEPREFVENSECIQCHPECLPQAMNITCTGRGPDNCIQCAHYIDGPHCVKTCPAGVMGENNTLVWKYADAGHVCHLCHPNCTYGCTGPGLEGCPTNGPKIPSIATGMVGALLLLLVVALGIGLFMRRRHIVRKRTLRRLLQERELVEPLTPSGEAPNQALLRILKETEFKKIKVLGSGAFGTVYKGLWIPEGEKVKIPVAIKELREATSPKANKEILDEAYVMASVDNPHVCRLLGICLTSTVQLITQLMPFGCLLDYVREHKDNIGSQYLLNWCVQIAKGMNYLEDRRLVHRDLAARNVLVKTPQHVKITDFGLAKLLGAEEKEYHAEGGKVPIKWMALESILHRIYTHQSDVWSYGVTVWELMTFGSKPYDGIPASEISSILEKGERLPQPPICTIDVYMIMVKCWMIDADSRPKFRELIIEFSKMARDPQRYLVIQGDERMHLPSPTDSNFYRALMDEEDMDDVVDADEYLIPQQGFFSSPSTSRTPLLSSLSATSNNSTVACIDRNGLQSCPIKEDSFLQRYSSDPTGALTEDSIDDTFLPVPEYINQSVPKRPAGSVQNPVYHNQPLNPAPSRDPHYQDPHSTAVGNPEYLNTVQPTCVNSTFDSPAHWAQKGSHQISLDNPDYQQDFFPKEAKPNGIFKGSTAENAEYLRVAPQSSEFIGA
Method: as §1

[8] = biological target: LCK (Homo sapiens, UniProt P06239); test: In vitro kinase selectivity assay, LCK (Z'-Lyte); assay type: biochemical; conditions: read-out: LCK kinase inhibitory activity grade
LCK, sequence (P06239 whole entry, species assumed): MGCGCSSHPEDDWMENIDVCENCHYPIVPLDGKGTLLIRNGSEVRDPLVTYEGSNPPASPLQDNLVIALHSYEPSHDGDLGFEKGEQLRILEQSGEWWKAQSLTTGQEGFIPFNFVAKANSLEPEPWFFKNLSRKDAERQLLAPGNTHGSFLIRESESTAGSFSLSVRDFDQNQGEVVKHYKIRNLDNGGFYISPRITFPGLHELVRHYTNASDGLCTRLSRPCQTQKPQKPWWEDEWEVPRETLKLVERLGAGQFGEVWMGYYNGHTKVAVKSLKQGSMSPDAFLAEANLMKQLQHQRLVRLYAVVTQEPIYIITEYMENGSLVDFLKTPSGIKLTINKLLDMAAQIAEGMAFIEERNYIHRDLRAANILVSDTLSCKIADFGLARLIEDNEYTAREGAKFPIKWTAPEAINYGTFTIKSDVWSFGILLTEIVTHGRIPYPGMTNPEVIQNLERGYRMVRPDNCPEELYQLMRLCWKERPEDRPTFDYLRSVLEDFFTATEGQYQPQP
Method: as §1

Recombinant Btk, sequence (Q06187 whole entry): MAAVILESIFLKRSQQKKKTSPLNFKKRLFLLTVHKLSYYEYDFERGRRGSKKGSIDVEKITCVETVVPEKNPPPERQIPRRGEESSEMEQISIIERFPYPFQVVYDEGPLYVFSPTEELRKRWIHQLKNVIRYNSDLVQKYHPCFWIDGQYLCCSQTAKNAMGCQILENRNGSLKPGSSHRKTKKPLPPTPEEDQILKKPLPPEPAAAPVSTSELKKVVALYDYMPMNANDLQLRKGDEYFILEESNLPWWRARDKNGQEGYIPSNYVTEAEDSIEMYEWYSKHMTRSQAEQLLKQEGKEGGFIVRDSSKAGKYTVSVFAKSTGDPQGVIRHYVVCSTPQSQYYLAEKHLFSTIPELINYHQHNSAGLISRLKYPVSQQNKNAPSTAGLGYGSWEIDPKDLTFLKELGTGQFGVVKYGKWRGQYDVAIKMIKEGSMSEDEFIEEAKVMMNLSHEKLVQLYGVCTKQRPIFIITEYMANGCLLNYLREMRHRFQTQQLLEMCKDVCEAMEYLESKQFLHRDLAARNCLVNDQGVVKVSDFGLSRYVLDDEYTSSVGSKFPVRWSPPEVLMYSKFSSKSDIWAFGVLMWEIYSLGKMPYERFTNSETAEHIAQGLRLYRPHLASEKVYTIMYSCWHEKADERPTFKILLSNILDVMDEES

Row | IC50 [1] [nM] | Structure (SMILES) | other results
1 | < 100 | N#CN1CC(n2nc(-c3ccc(Oc4ccc(F)cc4F)cc3)c(C(N)=O)c2N)CCC12CC2 (stereo not shown) [WS-408, 5-amino-1-(4-cyano-4-azaspiro[2.5]oct-6-yl)-3-(4-(2,4-difluorophenoxy)phenyl)-1H-pyrazole-4-carboxamide] | 
2 | < 100 | NC(=O)c1c(-c2ccc(Oc3ccc(F)cc3F)cc2)nn(C2CCC3(CC3)N(C(=O)/C=C/CO)C2)c1N (stereo not shown) [WS-409, (E)-5-amino-3-(4-(2,4-difluorophenoxy)phenyl)-1-(4-(4-hydroxybut-2-enoyl)-4-azaspiro[2.5]oct-6-yl)-1H-pyrazole-4-carboxamide] | 
3 | < 100 | C=CC(=O)N1CC(n2nc(-c3ccc(Oc4ccc(F)cc4F)cc3)c(C(N)=O)c2N)CCC12CC2 (stereo not shown) [WS-410, 1-(4-acryloyl-4-azaspiro[2.5]oct-6-yl)-5-amino-3-(4-(2,4-difluorophenoxy)phenyl)-1H-pyrazole-4-carboxamide] | 
4 | < 100 | N#CN1C[C@H](n2nc(-c3ccc(Oc4ccc(F)cc4F)cc3)c(C(N)=O)c2N)CCC12CC2 [WS-411, (R)-5-amino-1-(4-cyano-4-azaspiro[2.5]oct-6-yl)-3-(4-(2,4-difluorophenoxy)phenyl)-1H-pyrazole-4-carboxamide] | growth of TMD-8 tumor in vivo [2]: significantly inhibited the growth; IC50 [3]: 100 to 1000 nM; IC50 [4]: > 1000 nM; IC50 [5]: < 100 nM; IC50 [6]: > 1000 nM; IC50 [7]: > 1000 nM; IC50 [8]: 100 to 1000 nM
5 | > 1000 | N#CN1C[C@@H](n2nc(-c3ccc(Oc4ccc(F)cc4F)cc3)c(C(N)=O)c2N)CCC12CC2 [WS-412, (S)-5-amino-1-(4-cyano-4-azaspiro[2.5]oct-6-yl)-3-(4-(2,4-difluorophenoxy)phenyl)-1H-pyrazole-4-carboxamide] | 
6 | < 100 | CC#CC(=O)N1C[C@H](n2nc(-c3ccc(Oc4ccc(F)cc4F)cc3)c(C(N)=O)c2N)CCC12CC2 [WS-421, (R)-5-amino-1-(4-(2-butynoyl)-4-azaspiro[2.5]oct-6-yl)-3-(4-(2,4-difluorophenoxy)phenyl)-1H-pyrazole-4-carboxamide] | 

Further lines, the compound ahead of its results:

Row | Structure (SMILES) | IC50 [1] [nM] | other results
7 | C[C@H]1CC[C@@H](n2nc(-c3ccc(Oc4ccc(Cl)cn4)cc3)c(C(N)=O)c2N)CN1C#N [WS-401, 5-amino-3-(4-((5-chloropyridin-2-yl)oxy)phenyl)-1-((3R,6S)-1-cyano-6-methylpiperidin-3-yl)-1H-pyrazole-4-carboxamide] | < 100 | 
8 | C[C@@H]1CC[C@H](n2nc(-c3ccc(Oc4ccc(Cl)cn4)cc3)c(C(N)=O)c2N)CN1C#N [WS-402, 5-amino-3-(4-((5-chloropyridin-2-yl)oxy)phenyl)-1-((3S,6R)-1-cyano-6-methylpiperidin-3-yl)-1H-pyrazole-4-carboxamide] | 100 to 1000 | 
9 | C[C@@H]1CC[C@@H](n2nc(-c3ccc(Oc4ccc(Cl)cn4)cc3)c(C(N)=O)c2N)CN1C#N [WS-403, 5-amino-3-(4-((5-chloropyridin-2-yl)oxy)phenyl)-1-((3R,6R)-1-cyano-6-methylpiperidin-3-yl)-1H-pyrazole-4-carboxamide] | 100 to 1000 | 
10 | C[C@H]1CC[C@H](n2nc(-c3ccc(Oc4ccc(Cl)cn4)cc3)c(C(N)=O)c2N)CN1C#N [WS-404, 5-amino-3-(4-((5-chloropyridin-2-yl)oxy)phenyl)-1-((3S,6S)-1-cyano-6-methylpiperidin-3-yl)-1H-pyrazole-4-carboxamide] | 100 to 1000 | 
11 | N#CN1CC(n2nc(-c3ccc(Oc4ccc(Cl)cn4)cc3)c(C(N)=O)c2N)CCC12CC2 (stereo not shown) [WS-405, 5-amino-3-(4-((5-chloropyridin-2-yl)oxy)phenyl)-1-(4-cyano-4-azaspiro[2.5]oct-6-yl)-1H-pyrazole-4-carboxamide] | < 100 | 
12 | NC(=O)c1c(-c2ccc(Oc3ccc(Cl)cn3)cc2)nn(C2CCC3(CC3)N(C(=O)/C=C/CO)C2)c1N (stereo not shown) [WS-406, (E)-5-amino-3-(4-((5-chloropyridin-2-yl)oxy)phenyl)-1-(4-(4-hydroxybut-2-enoyl)-4-azaspiro[2.5]oct-6-yl)-1H-pyrazole-4-carboxamide] | < 100 | 
13 | C=CC(=O)N1CC(n2nc(-c3ccc(Oc4ccc(Cl)cn4)cc3)c(C(N)=O)c2N)CCC12CC2 (stereo not shown) [WS-407, 1-(4-acryloyl-4-azaspiro[2.5]oct-6-yl)-5-amino-3-(4-((5-chloropyridin-2-yl)oxy)phenyl)-1H-pyrazole-4-carboxamide] | < 100 | 
14 | N#CN1C[C@H](n2nc(-c3ccc(Oc4ccc(Cl)cn4)cc3)c(C(N)=O)c2N)CCC12CC2 [WS-413, (R)-5-amino-3-(4-((5-chloropyridin-2-yl)oxy)phenyl)-1-(4-cyano-4-azaspiro[2.5]oct-6-yl)-1H-pyrazole-4-carboxamide] | < 100 | growth of TMD-8 tumor in vivo [2]: significantly inhibited the growth; IC50 [3]: > 1000 nM; IC50 [4]: > 1000 nM; IC50 [5]: < 100 nM; IC50 [6]: > 1000 nM; IC50 [7]: 100 to 1000 nM; IC50 [8]: > 1000 nM
15 | N#CN1C[C@@H](n2nc(-c3ccc(Oc4ccc(Cl)cn4)cc3)c(C(N)=O)c2N)CCC12CC2 [WS-414, (S)-5-amino-3-(4-((5-chloropyridin-2-yl)oxy)phenyl)-1-(4-cyano-4-azaspiro[2.5]oct-6-yl)-1H-pyrazole-4-carboxamide] | 100 to 1000 | 
16 | CC#CC(=O)N1C[C@@H](n2nc(-c3ccc(Oc4ccc(Cl)cn4)cc3)c(C(N)=O)c2N)CCC12CC2 [WS-417] | 100 to 1000 | 
17 | CC#CC(=O)N1C[C@H](n2nc(-c3ccc(Oc4ccc(F)cc4F)cc3)c(C(N)=O)c2N)CCC12CC2 [WS-422, (R)-5-amino-1-(4-(2-butynoyl)-4-azaspiro[2.5]oct-6-yl)-3-(4-(2,4-difluorophenoxy)phenyl)-1H-pyrazole-4-carboxamide] |  | growth of TMD-8 tumor in vivo [2]: significantly inhibited the growth
